# pIC50: −log10 of the molar value.
# Columns and labels:
# [1] = biological target: T1, SirT2 (Homo sapiens, UniProt Q8IXJ6); test: FLuc K529ac-based KDAC assay, inhibition or activation of SirT2 deacetylation
# T1 sequence (Q8IXJ6 56-356): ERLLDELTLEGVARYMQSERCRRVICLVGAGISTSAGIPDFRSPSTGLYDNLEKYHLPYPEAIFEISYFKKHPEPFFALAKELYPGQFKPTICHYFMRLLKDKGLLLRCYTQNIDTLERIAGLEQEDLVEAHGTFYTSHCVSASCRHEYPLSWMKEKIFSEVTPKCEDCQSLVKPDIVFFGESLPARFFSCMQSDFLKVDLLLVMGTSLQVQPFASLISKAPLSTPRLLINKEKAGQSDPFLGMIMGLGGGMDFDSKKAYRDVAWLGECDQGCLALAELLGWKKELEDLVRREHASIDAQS
# Experimental: Typical endpoint deacetylation reactions contain: 30 nM Firefly Luciferase K529ac, 1 mM NAD^+, 1 μg/ml KDAC in 50 μl KDAC buffer (25 mM Tris/HCl pH 8.0, 137 mM NaCl, 2.7 mM KCl, 1 mM MgCl2, 1 mM DTT, 1 mg/ml BSA). The reactions are incubated for 1 h at 25° C. Luciferase activity is then assayed by addition of an equal volume of a mixture containing 40 mM Tricine, 200 μM EDTA, 7.4 mM MgSO4, 2 mM NaHCO3, 34 mM DTT, 0.5 mM ATP and 0.5 mM luciferin, pH 7.8^4. Luminescence is quantified using a FluoStar Omega Microplate Reader (BMG Labtech).
# The continuous FLuc-based KDAC assay was set up by mixing all the components of the endpoint assay immediately. Usually NAD^+ was omitted initially and added from a 20-fold stock solution after 5 min preincubation to start the reaction. Luminescence was recorded every minute over a period of 30 min. KDAC activity was calculated from the slope of the linear phase of the reaction.
# The effect of the compounds was analyzed at 10 μM on SirT2 activity using the FLuc K529ac assay in endpoint format.
# [2] = test system: KDACs; test: FLuc K529ac activation by different KDACs; format: biochemical; conditions: purified FLuc K529ac
# Experimental: FIG. 7: FLuc K529ac activation by different KDACs. Sirtuins were used at 20 μg/ml, while HDAC8 concentration was 10 mg/ml with tenfold higher FLuc K529ac. All error bars are standard deviations of triplicates.
# It was tested whether purified FLuc K529ac can be used to quantify KDAC activity by incubating it with various different KDACs (FIG. 7). Prior to treatment with a KDAC the enzyme produced very little bioluminescence. After incubation with various KDACs the luminescence increased up to 130 fold.
Compound,pIC50 [1],Luminescence increase after incubation with various KDACs [2]
"Oc1cc(O)cc(/C=C/c2ccc(O)c(O)c2)c1 [Compound 2, piceatannol]",5.26,–
"FLuc K529ac: Firefly luciferase with N(ε)-acetyl-lysine in place of K529, reporter substrate for KDACs",–,up to 130 fold

# Reference: US20200240995A1, “KDAC VARIANTS AND USES THEREOF” (Max-Planck-Gesellschaft Zur Forderung Der Wissenschaften …, priority 2017, published 2020)
